The record followed here is publication PMC10052977, “α,ω-Diacyl-Substituted Analogues of Natural and Unnatural Polyamines: Identification of Potent Bactericides That Selectively Target Bacterial Membranes” (International Journal of Molecular Sciences, 2023).

Each structure is given as a SMILES string. Converted amounts (≈) assume the structure as drawn. Where two headings read alike, the source gives them in different places.

The test system of data set [1] is Acinetobacter baumannii ATCC19606. Nature of the data set: MIC, CO-ADD broth microdilution. The class given is cell-based. The note with it: mean (n = 2). For orientation: Dilution methods test growth across graded concentrations, often in twofold steps.
Another data set has as its system MRSA ATCC 43300. Description: MIC, CO-ADD broth microdilution. The note with it: for MIC: Staphylococcus aureus, read-out: MIC MRSA. It is filed as cell-based, Staphylococcus aureus.
Data set [2] is described as follows: Cytotoxicity assay (resazurin). It is filed as cell-based, human. To be noted: human; HEK293 cells; mean (n = 2); highest dose tested 32 μg/mL; read-out: Cytotoxicity (concentration of compound at 50% cytotoxicity, IC50). In general terms: The colour change of resazurin is a common sign of viable cells or microbes.
Data set [3] relates to Escherichia coli ATCC 25922. Description: MIC, CO-ADD broth microdilution. To be noted: ATCC25922, mean (n = 2). The class given is cell-based.
Data set [4] concerns Cryptococcus neoformans ATCC208821. Description: Antifungal MIC, CO-ADD. It is filed as cell-based. To be noted: ATCC208821, Cryptococcus neoformans ATCC208821, mean (n = 2). Here is the method:
(§1) For the antifungal assay, fungi strains were cultured for 3 days on YPD agar at 30 °C. A yeast suspension of 1 × 10^6 to 5 × 10^6 CFU/mL was prepared from five colonies. These stock suspensions were diluted with yeast nitrogen base (YNB) (Becton Dickinson, 233520) broth to a final concentration of 2.5 × 10^3 CFU/mL. […] Plates were covered and incubated at 35 °C for 36 h without shaking. C. albicans MICs were determined by measuring the absorbance at OD530. […] Fluconazole was used as a positive fungal inhibitor standard for C. albicans and C. neoformans. […] Quality control (QC) of the assays was determined by antimicrobial controls and Z’-factor (using positive and negative controls).

The test system of data set [5] is Candida albicans ATCC90028. Description: Antifungal MIC, CO-ADD. The note with it: mean (n = 2). It is filed as cell-based. Here is the method:
as §1

The subject of data set [6] is Klebsiella pneumoniae ATCC700603. Nature of the data set: MIC, CO-ADD broth microdilution. The class given is cell-based. To be noted: mean (n = 2).
The test system of data set [7] is Staphylococcus aureus ATCC 25923 or ATCC 29213. Description: MIC, broth dilution (CA-SFM). It is filed as cell-based. The note with it: Staphylococcus aureus ATCC 25923 or ATCC 29213; mean (n = 3); read-out: MIC S. a.
For a further data set, the system named is human red blood cells. Nature of the data set: Hemolytic assay. The class given is cell-based. The note with it: mean (n = 2). The protocol:
Human whole blood was washed three times with 3 volumes of 0.9% NaCl and then resuspended in same to a concentration of 0.5 × 10^8 cells/mL, as determined by manual cell count in a Neubauer hemocytometer. The washed cells were then added to the 384-well compound-containing plates for a final volume of 50 μL. After a 10 min shake on a plate shaker, the plates were then incubated for 1 h at 37 °C. After incubation, the plates were centrifuged at 1000× g for 10 min to pellet cells and debris; 25 μL of the supernatant was then transferred to a polystyrene 384-well assay plate. Hemolysis was determined by measuring the supernatant absorbance at […] (OD405). The absorbance was measured using a Tecan M1000 Pro monochromator plate reader. HC10 and HC50 (concentration at 10% and 50% hemolysis, respectively) were calculated by curve fitting the inhibition values vs. log (concentration) using a sigmoidal dose–response function with variable fitting values for top, bottom and slope.

For data set [8], the system named is Pseudomonas aeruginosa PAO1 or ATCC 27853. Nature of the data set: MIC, broth dilution (CA-SFM). The class given is cell-based. To be noted: mean (n = 3).

For `O=C(CC(c1ccccc1)c1ccccc1)NCCCNCCCCCCNCCCNC(=O)CC(c1ccccc1)c1ccccc1.O=C(O)C(F)(F)F.O=C(O)C(F)(F)F` [Compound 15b, N^1,N^6-Bis(3-(3,3-diphenylpropanamido)propyl)hexane-1,6-diaminium 2,2,2-trifluoroacetate], the MIC in data set [1] was > 36.6 µM; in the data set on MRSA ATCC 43300 (MRSA ATCC 43300, mean (n = 2)), ≤ 0.29 µM; in data set [3], 4.6 µM; in data set [4], > 36.6 µM; in data set [5], > 36.6 µM; in data set [6], > 36.6 µM. Further, the minimal inhibitory concentration (MIC) in [7] stood at 12.5 µM; in data set [8], 100 µM. For the same compound, the IC50 at 20 h in data set [2] was > 36.6 µM. Further, the “Hemolysis (HC10, concentration at 10% hemolytic activity)” value with human red blood cells is >36.6 µM.

Consider `O=C(CCc1ccccc1)NCCCNCCCCCCCCCCNCCCNC(=O)CCc1ccccc1.O=C(O)C(F)(F)F.O=C(O)C(F)(F)F` [Compound 13e, N^1,N^10-Bis(3-(3-phenylpropanamido)propyl)decane-1,10-diaminium 2,2,2-trifluoroacetate], for which the MIC is > 41.1 µM in data set [1]; 10.3 µM in the data set with MRSA ATCC 43300 (MRSA ATCC 43300, mean (n = 2)); 41.1 µM in data set [3]; 41.1 µM in data set [4]; > 41.1 µM in data set [5]; > 41.1 µM in [6]. The MIC is 32 µM in [7] and 642 µM in data set [8]. For the same compound, the “activity towards MRSA” value in the data set with MRSA ATCC 43300 (MRSA) is on record as “weak”. For the same compound, the IC50 at 20 h in [2] was > 41.1 µM. The “Hemolysis (HC10, concentration at 10% hemolytic activity)” value in the data set with human red blood cells was >41.1 µM.

`O=C(NCCCNCCCCCCCCCCNCCCNC(=O)C(c1ccccc1)(c1ccccc1)c1ccccc1)C(c1ccccc1)(c1ccccc1)c1ccccc1.O=C(O)C(F)(F)F.O=C(O)C(F)(F)F` [Compound 17e, N^1,N^10-Bis(3-(2,2,2-triphenylacetamido)propyl)decane-1,10-diaminium 2,2,2-trifluoroacetate]: the MIC in [1] was > 30.3 µM; in the data set on MRSA ATCC 43300 (MRSA ATCC 43300, mean (n = 2)), < 0.23 µM; in data set [3], < 0.23 µM; in [4], < 0.23 µM; in data set [5], > 30.3 µM; in data set [6], > 30.3 µM. The figures for the MIC in data set [7] and in data set [8] were 3.12 µM and 300 µM, respectively. Further, in data set [2], the IC50 at 20 h is > 30.3 µM. In the data set with human red blood cells, the “Hemolysis (HC10, concentration at 10% hemolytic activity)” value is ≤0.234 µM.

For `O=C(CC(c1ccccc1)c1ccccc1)NCCCNCCCCCCCCCCNCCCNC(=O)CC(c1ccccc1)c1ccccc1.O=C(O)C(F)(F)F.O=C(O)C(F)(F)F` [Compound 15e, N^1,N^10-Bis(3-(3,3-diphenylpropanamido)propyl)decane-1,10-diaminium 2,2,2-trifluoroacetate], the MIC was 2.15 µM in data set [1]; ≤ 0.27 µM with MRSA ATCC 43300 (MRSA ATCC 43300, mean (n = 2)); ≤ 0.27 µM in data set [3]; > 34.4 µM in data set [4]; > 34.4 µM in data set [5]; > 34.4 µM in data set [6]. Further, the MIC in [7] was 3.13 µM; in [8] it was 200 µM. The IC50 at 20 h in [2] was > 34.4 µM. Further, the “Hemolysis (HC10, concentration at 10% hemolytic activity)” value with human red blood cells is >34.4 µM.

For the compound `[H]/N=C(/N)N[C@H]1[C@H](O)[C@@H](O)[C@H](O[C@@H]2O[C@@H](C)[C@](O)(C=O)[C@H]2O[C@@H]2O[C@@H](CO)[C@H](O)[C@@H](O)[C@@H]2NC)[C@@H](N/C(N)=N\[H])[C@@H]1O` [streptomycin, reference compound], the MIC in data set [7] and in data set [8] was 21.5 µM (≈ 12.5 µg/mL) each time.

On to `O=C(NCCCNCCCCCCNCCCNC(=O)C(c1ccccc1)(c1ccccc1)c1ccccc1)C(c1ccccc1)(c1ccccc1)c1ccccc1.O=C(O)C(F)(F)F.O=C(O)C(F)(F)F` [Compound 17b, N^1,N^6-Bis(3-(2,2,2-triphenylacetamido)propyl)hexane-1,6-diaminium 2,2,2-trifluoroacetate], for which the MIC in data set [1] was 4 µM; in the data set with MRSA ATCC 43300 (MRSA ATCC 43300, mean (n = 2)), < 0.25 µM; in data set [3], 4 µM; in data set [4] it was < 0.25 µM; in [5] it was 16 µM; in data set [6], 32 µM. Also, the values for the MIC in [7] and in data set [8] were 6.25 µM and 300 µM, respectively. Moreover, the IC50 at 20 h in data set [2] was ≤ 0.25 µM. Also, in the data set on human red blood cells, the “Hemolysis (HC10, concentration at 10% hemolytic activity)” value is 6.27 µM.

For the compound `O=C(N[C@H](CO)[C@H](O)c1ccc([N+](=O)[O-])cc1)C(Cl)Cl` [chloramphenicol, reference compound], the MIC in data set [7] lay within 1.5 to 3 µM (≈ 0.485 to 0.969 µg/mL).

`O=C(CC(c1ccccc1)c1ccccc1)NCCCNCCCCCCCNCCCNC(=O)CC(c1ccccc1)c1ccccc1.O=C(O)C(F)(F)F.O=C(O)C(F)(F)F` [Compound 15c, N^1,N^7-Bis(3-(3,3-diphenylpropanamido)propyl)heptane-1,7-diaminium 2,2,2-trifluoroacetate]: the MIC in [1] is > 36 µM; in the data set with MRSA ATCC 43300 (MRSA ATCC 43300, mean (n = 2)) it was ≤ 0.28 µM; in [3], 2.3 µM; in data set [4], ≤ 0.28 µM; in [5], > 36 µM; in data set [6] it was > 36 µM. For the same compound, the minimum inhibitory concentration (MIC) came to 6.25 µM in [7] and 100 µM in data set [8]. Besides, the IC50 at 20 h in [2] is > 36 µM. For the same compound, the “Hemolysis (HC10, concentration at 10% hemolytic activity)” value in the data set on human red blood cells was >36.0 µM.

For `C[C@H]1c2cccc(O)c2C(=O)C2=C(O)[C@]3(O)C(=O)C(C(N)=O)=C(O)[C@@H](N(C)C)[C@@H]3[C@@H](O)[C@@H]21` [doxycycline, reference compound], the minimum inhibitory concentration (MIC) in [8] was 90 µM (≈ 40 µg/mL).

Consider `O=C(CCC(=O)NCCCc1ccccc1)NCCCNCCCCCCNCCCNC(=O)CCC(=O)NCCCc1ccccc1` [Compound 14b, N^1,N^6-Bis(3-(4-oxo-4-((3-phenylpropyl)amino)butanamido)propyl)hexane-1,6-diaminium 2,2,2-trifluoroacetate], for which the MIC in data set [1] was > 35.8 µM; with MRSA ATCC 43300 (MRSA ATCC 43300, mean (n = 2)) it was > 35.8 µM; in data set [3], > 35.8 µM; in data set [4], > 35.8 µM; in data set [5] it was > 35.8 µM; in [6], > 35.8 µM. Besides, the minimal inhibitory concentration (MIC) in data set [7] and in [8] was > 200 µM each time.

For the compound `OC(Cn1cncn1)(Cn1cncn1)c1ccc(F)cc1F` [fluconazole, reference compound], the MIC is 26 µM (≈ 7.96 µg/mL) in [4] and 0.4 µM (≈ 0.123 µg/mL) in data set [5].

For `O=C(CCC(=O)NCCCc1ccccc1)NCCCNCCCCCCCNCCCNC(=O)CCC(=O)NCCCc1ccccc1` [Compound 14c, N^1,N^7-Bis(3-(4-oxo-4-((3-phenylpropyl)amino)butanamido)propyl)heptane-1,7-diaminium 2,2,2-trifluoroacetate], the MIC in data set [1] was > 35.3 µM; with MRSA ATCC 43300 (MRSA ATCC 43300, mean (n = 2)), > 35.3 µM; in [3] it was > 35.3 µM; in data set [4], > 35.3 µM; in data set [5] it was > 35.3 µM; in [6], > 35.3 µM. In addition, the MIC in data set [7] is 200 µM (≈ 136 µg/mL); in [8] it was > 200 µM.

Regarding `CC/C(=C(\c1ccccc1)c1ccc(OCCN(C)C)cc1)c1ccccc1` [Tamoxifen, reference compound], in data set [2], the IC50 at 20 h stood at 24 µM.

On to `CN[C@H](CC(C)C)C(=O)N[C@H]1C(=O)N[C@@H](CC(N)=O)C(=O)N[C@H]2C(=O)N[C@H]3C(=O)N[C@H](C(=O)N[C@H](C(=O)O)c4cc(O)cc(O)c4-c4cc3ccc4O)[C@H](O)c3ccc(c(Cl)c3)Oc3cc2cc(c3O[C@@H]2O[C@H](CO)[C@@H](O)[C@H](O)[C@H]2O[C@H]2C[C@](C)(N)[C@H](O)[C@H](C)O2)Oc2ccc(cc2Cl)[C@H]1O` [vancomycin, reference compound], for which, in the data set with MRSA ATCC 43300, the MIC was 0.7 µM (≈ 1.01 µg/mL).

Consider `O=C(CCc1ccccc1)NCCCNCCCCNCCCNC(=O)CCc1ccccc1` [Compound 13a, N^1,N^4-Bis(3-(3-phenylpropanamido)propyl)butane-1,4-diaminium 2,2,2-trifluoroacetate], for which the MIC in [1] was > 46.1 µM; with MRSA ATCC 43300 (MRSA ATCC 43300, mean (n = 2)), > 46.1 µM; in [3], > 46.1 µM; in data set [4] it was > 46.1 µM; in data set [5], > 46.1 µM; in data set [6], > 46.1 µM. The MIC in data set [7] and in data set [8] was 720 µM (≈ 336 µg/mL) in each case.

As usually defined, the MIC is the lowest concentration found to suppress growth.
